Source: ChEMBL document CHEMBL1201862, “PubChem BioAssay data set” (2004)
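Cultured in 96-well plates, cells were exposed to test compound for 48 hours across five concentrations. The concentration for 50% growth inhibition is given as GI50.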 Active and inactive are the calls of the source. Rule as the data show it: active = GI50 up to about 1.1 µM and inactive = higher.

Columns and labels:
Experiment in all cases: NCI tumour cell line growth inhibition, 48 h
786-0 = tested on: 786-0
A498 = tested on: A498
A549 = tested on: A549
ACHN = tested on: ACHN
CAKI-1 = tested on: CAKI-1
CCRF-CEM = tested on: CCRF-CEM
COLO 205 = tested on: COLO 205
DLD-1 = tested on: DLD-1
DMS-114 = tested on: DMS-114
DMS-273 = tested on: DMS-273
EKVX = tested on: EKVX
HCC 2998 = tested on: HCC 2998
HCT-116 = tested on: HCT-116
HCT-15 = tested on: HCT-15
HL-60 = tested on: HL-60
HOP-18 = tested on: HOP-18
HOP-62 = tested on: HOP-62
HOP-92 = tested on: HOP-92
HT-29 = tested on: HT-29
IGROV-1 = tested on: IGROV-1
K562 = tested on: K562
KM-20L2 = tested on: KM-20L2
KM12 = tested on: KM12
LOX IMVI = tested on: LOX IMVI
LXFL 529 = tested on: LXFL 529
M14 = tested on: M14
M19-MEL = tested on: M19-MEL
MOLT-4 = tested on: MOLT-4
Malme-3M = tested on: Malme-3M
NCI-H226 = tested on: NCI-H226
NCI-H23 = tested on: NCI-H23
NCI-H460 = tested on: NCI-H460
NCI-H522 = tested on: NCI-H522
OVCAR-3 = tested on: OVCAR-3
OVCAR-4 = tested on: OVCAR-4
OVCAR-5 = tested on: OVCAR-5
OVCAR-8 = tested on: OVCAR-8
RPMI-8226 = tested on: RPMI-8226
SF-268 = tested on: SF-268
SF-295 = tested on: SF-295
SF-539 = tested on: SF-539
SK-MEL-28 = tested on: SK-MEL-28
SK-MEL-2 = tested on: SK-MEL-2
SK-MEL-5 = tested on: SK-MEL-5
SK-OV-3 = tested on: SK-OV-3
SN12C = tested on: SN12C
SNB-19 = tested on: SNB-19
SNB-75 = tested on: SNB-75
SNB-78 = tested on: SNB-78
SR = tested on: SR
SW-620 = tested on: SW-620
TK-10 = tested on: TK-10
U-251 = tested on: U-251
UACC-257 = tested on: UACC-257
UACC-62 = tested on: UACC-62
UO-31 = tested on: UO-31
XF498 = tested on: XF498
RXF 393 = tested on: RXF 393

SMILES: CC(C)C1NC(=O)[C@H](C)OC(=O)[C@@H](C(C)C)NC(=O)[C@@H](C)OC(=O)C(C(C)C)NC(=O)[C@H](C)OC1=O (stereo partly drawn)
- GI50 (786-0): 20.9 µM (inactive)
- GI50 (A498): > 100 µM (inactive)
- GI50 (A549): > 100 µM (inactive)
- GI50 (ACHN): > 100 µM (inactive)
- GI50 (CAKI-1): > 100 µM (inactive)
- GI50 (CCRF-CEM): > 100 µM (inactive)
- GI50 (COLO 205): > 54.6 µM (inactive)
- GI50 (DLD-1): > 59.6 µM (inactive)
- GI50 (DMS-114): > 63.8 µM (inactive)
- GI50 (DMS-273): 59.2 µM (inactive)
- GI50 (EKVX): > 100 µM (inactive)
- GI50 (HCC 2998): > 100 µM (inactive)
- GI50 (HCT-116): > 86.5 µM (inactive)
- GI50 (HCT-15): 17.5 µM
- GI50 (HL-60): > 100 µM (inactive)
- GI50 (HOP-18): > 100 µM (inactive)
- GI50 (HOP-62): > 100 µM (inactive)
- GI50 (HOP-92): > 100 µM (inactive)
- GI50 (HT-29): > 100 µM (inactive)
- GI50 (IGROV-1): > 100 µM (inactive)
- GI50 (K562): > 41.7 µM (inactive)
- GI50 (KM-20L2): 56.4 µM (inactive)
- GI50 (KM12): > 88.7 µM (inactive)
- GI50 (LOX IMVI): > 49.3 µM (inactive)
- GI50 (LXFL 529): > 66.2 µM (inactive)
- GI50 (M14): > 95.1 µM (inactive)
- GI50 (M19-MEL): > 55.5 µM (inactive)
- GI50 (MOLT-4): > 100 µM (inactive)
- GI50 (Malme-3M): > 100 µM (inactive)
- GI50 (NCI-H226): > 100 µM (inactive)
- GI50 (NCI-H23): > 100 µM (inactive)
- GI50 (NCI-H460): > 79.4 µM (inactive)
- GI50 (NCI-H522): > 100 µM (inactive)
- GI50 (OVCAR-3): > 100 µM (inactive)
- GI50 (OVCAR-4): > 67.1 µM (inactive)
- GI50 (OVCAR-5): > 100 µM (inactive)
- GI50 (OVCAR-8): > 100 µM (inactive)
- GI50 (RPMI-8226): > 47.9 µM (inactive)
- GI50 (SF-268): > 100 µM (inactive)
- GI50 (SF-295): > 100 µM (inactive)
- GI50 (SF-539): > 50.9 µM (inactive)
- GI50 (SK-MEL-28): > 100 µM (inactive)
- GI50 (SK-MEL-2): > 100 µM (inactive)
- GI50 (SK-MEL-5): > 100 µM (inactive)
- GI50 (SK-OV-3): > 100 µM (inactive)
- GI50 (SN12C): > 100 µM (inactive)
- GI50 (SNB-19): > 100 µM (inactive)
- GI50 (SNB-75): > 100 µM (inactive)
- GI50 (SNB-78): > 100 µM (inactive)
- GI50 (SR): 29.8 µM (inactive)
- GI50 (SW-620): > 28.1 µM (inactive)
- GI50 (TK-10): > 100 µM (inactive)
- GI50 (U-251): > 68.4 µM (inactive)
- GI50 (UACC-257): > 100 µM (inactive)
- GI50 (UACC-62): > 100 µM (inactive)
- GI50 (UO-31): > 100 µM (inactive)
- GI50 (XF498): 94 µM (inactive)

SMILES: COC(=O)C(=O)C(C(=O)OC)C(=O)C(=O)Nc1cc(Cl)c(C)cc1S(=O)(=O)O (stereo not drawn)
- GI50 (786-0): > 100 µM (inactive)
- GI50 (A498): > 100 µM (inactive)
- GI50 (A549): > 100 µM (inactive)
- GI50 (ACHN): > 100 µM (inactive)
- GI50 (CAKI-1): > 100 µM (inactive)
- GI50 (CCRF-CEM): > 100 µM (inactive)
- GI50 (COLO 205): > 100 µM (inactive)
- GI50 (DLD-1): > 100 µM (inactive)
- GI50 (DMS-114): > 100 µM (inactive)
- GI50 (DMS-273): > 100 µM (inactive)
- GI50 (EKVX): > 100 µM (inactive)
- GI50 (HCC 2998): > 100 µM (inactive)
- GI50 (HCT-116): > 100 µM (inactive)
- GI50 (HCT-15): > 100 µM
- GI50 (HL-60): > 100 µM (inactive)
- GI50 (HOP-18): > 100 µM (inactive)
- GI50 (HOP-62): > 100 µM (inactive)
- GI50 (HT-29): > 100 µM (inactive)
- GI50 (IGROV-1): > 100 µM (inactive)
- GI50 (K562): > 100 µM (inactive)
- GI50 (KM-20L2): > 100 µM (inactive)
- GI50 (KM12): > 100 µM (inactive)
- GI50 (LOX IMVI): > 100 µM (inactive)
- GI50 (LXFL 529): > 100 µM (inactive)
- GI50 (M14): > 100 µM (inactive)
- GI50 (M19-MEL): > 100 µM (inactive)
- GI50 (MOLT-4): > 100 µM (inactive)
- GI50 (Malme-3M): > 100 µM (inactive)
- GI50 (NCI-H226): > 100 µM (inactive)
- GI50 (NCI-H23): > 100 µM (inactive)
- GI50 (NCI-H460): > 100 µM (inactive)
- GI50 (NCI-H522): > 100 µM (inactive)
- GI50 (OVCAR-3): > 100 µM (inactive)
- GI50 (OVCAR-4): > 100 µM (inactive)
- GI50 (OVCAR-5): > 100 µM (inactive)
- GI50 (OVCAR-8): > 100 µM (inactive)
- GI50 (RXF 393): > 100 µM (inactive)
- GI50 (SF-268): > 100 µM (inactive)
- GI50 (SF-295): > 100 µM (inactive)
- GI50 (SF-539): > 100 µM (inactive)
- GI50 (SK-MEL-28): > 100 µM (inactive)
- GI50 (SK-MEL-2): > 100 µM (inactive)
- GI50 (SK-MEL-5): > 100 µM (inactive)
- GI50 (SK-OV-3): > 100 µM (inactive)
- GI50 (SN12C): > 100 µM (inactive)
- GI50 (SNB-19): > 100 µM (inactive)
- GI50 (SNB-75): 74.3 µM (inactive)
- GI50 (SNB-78): > 100 µM (inactive)
- GI50 (SR): > 100 µM (inactive)
- GI50 (SW-620): > 100 µM (inactive)
- GI50 (TK-10): > 100 µM (inactive)
- GI50 (U-251): > 100 µM (inactive)
- GI50 (UACC-257): > 100 µM (inactive)
- GI50 (UACC-62): > 100 µM (inactive)
- GI50 (UO-31): > 100 µM (inactive)
- GI50 (XF498): > 100 µM (inactive)
